Columns and labels:
Assay type in all cases: cell-based
[1] = tested on: Cisplatin resistant human ovarian cancer cells; assay: Toxicity assay (printed MTD assay) on resistant cells; conditions: various concentrations (1-1000 µM) for 24, 48 or 72 hours
Experimental: Cisplatin resistant human ovarian cancer cells were treated with compounds of example 1 and 4 in comparison with 5-FU at various concentrations (1-1000 µM) for 24, 48 or 72 hours. MTD assay was used for toxicity study.

[2] = tested on: colon tumour cells HCT 116; assay: MTT assay (cell viability by mitochondrial dehydrogenase) on colon tumour cells; conditions: in vitro, range of concentrations 1-100 µM
Text: (§1) The compound described in example 4 has been tested in vitro on colon tumour cells HCT 116 and DLD 1. MTT assay was used for toxicity study (spectrophotometric measurement of cell viability by mitochondrial dehydrogenase).

colon tumour cells DLD 1 = assay: as above; conditions: in vitro, range of concentrations 1-100 µM
Text: as §1

SMILES	biological activity in comparison with 5-FU [1]	inhibit growth of colon tumour cells [2]	inhibit growth of colon tumour cells (colon tumour cells DLD 1)
CS(=O)(=O)SCCC(=O)OCn1cc(F)c(=O)[nH]c1=O [Example 1, (5-fluoro-2,4-dioxo-3,4-dihydropyrimidin-1(2H)-yl)methyl 3-(methylsulfonylthio)propanoate]	superior to 5-FU	–	–
CS(=O)(=O)SCCOC(=O)CNC(=O)n1cc(F)c(=O)[nH]c1=O [Example 4, 2-(methylsulfonylthio)ethyl 2-(5-fluoro-2,4-dioxo-1,2,3,4-tetrahydropyrimidine-1-carboxamido)acetate]	superior to 5-FU	potently inhibit growth	potently inhibit growth
